One assay has as its target T1, DYRK3 (Homo sapiens, UniProt O43781).
T1 construct: GST-fusion or His-tag (not specified per kinase); purchased ProQinase GmbH; host or cells: Sf9 insect cells or E. coli (not specified per kinase)
T1 sequence (O43781 1-588): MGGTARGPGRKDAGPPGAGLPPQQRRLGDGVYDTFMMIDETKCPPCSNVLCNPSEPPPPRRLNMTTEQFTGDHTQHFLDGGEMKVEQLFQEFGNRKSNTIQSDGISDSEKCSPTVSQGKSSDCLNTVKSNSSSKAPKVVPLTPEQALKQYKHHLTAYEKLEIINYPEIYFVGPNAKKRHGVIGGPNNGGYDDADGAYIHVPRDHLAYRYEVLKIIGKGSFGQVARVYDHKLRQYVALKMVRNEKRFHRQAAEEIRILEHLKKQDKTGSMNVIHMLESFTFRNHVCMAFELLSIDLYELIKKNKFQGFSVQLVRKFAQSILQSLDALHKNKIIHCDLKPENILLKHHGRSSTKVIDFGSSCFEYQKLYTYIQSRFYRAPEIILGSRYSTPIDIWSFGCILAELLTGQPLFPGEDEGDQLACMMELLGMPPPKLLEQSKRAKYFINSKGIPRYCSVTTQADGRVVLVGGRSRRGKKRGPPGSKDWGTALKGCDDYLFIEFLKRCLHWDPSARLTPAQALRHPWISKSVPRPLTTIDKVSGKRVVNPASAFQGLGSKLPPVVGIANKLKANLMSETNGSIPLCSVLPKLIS
The experiment in a line: Radiometric protein kinase assay (33PanQinase Activity Assay), DYRK3. Format: biochemical. As to conditions: read-out: IC50 on DYRK3 (most potent DYRK3 inhibitors). A digest of the protocol:
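IC50 values were derived from 10-point dose-response curves (10 μM to 30 nM). Incubation: 60 min, 30 °C, 1% DMSO, radiolabelled ATP.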

The next assay has as its target T2, DYRK4 (Homo sapiens, UniProt Q9NR20).
T2 construct: GST-fusion or His-tag (not specified per kinase); purchased ProQinase GmbH; host or cells: Sf9 insect cells or E. coli (not specified per kinase)
T2 sequence (Q9NR20 1-520): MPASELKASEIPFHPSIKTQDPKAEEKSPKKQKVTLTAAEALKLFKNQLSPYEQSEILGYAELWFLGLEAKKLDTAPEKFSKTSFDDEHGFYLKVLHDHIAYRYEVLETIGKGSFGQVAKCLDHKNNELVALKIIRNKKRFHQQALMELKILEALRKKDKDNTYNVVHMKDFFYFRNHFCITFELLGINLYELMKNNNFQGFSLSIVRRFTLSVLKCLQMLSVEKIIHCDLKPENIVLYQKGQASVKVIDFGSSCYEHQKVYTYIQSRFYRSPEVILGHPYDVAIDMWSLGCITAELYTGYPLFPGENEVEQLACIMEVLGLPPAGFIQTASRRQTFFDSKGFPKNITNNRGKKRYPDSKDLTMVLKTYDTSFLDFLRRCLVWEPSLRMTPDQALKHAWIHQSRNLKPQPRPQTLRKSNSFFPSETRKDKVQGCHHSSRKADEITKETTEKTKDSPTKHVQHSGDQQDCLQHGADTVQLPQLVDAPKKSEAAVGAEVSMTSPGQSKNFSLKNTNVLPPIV
The experiment in a line: Radiometric protein kinase assay (33PanQinase Activity Assay), DYRK4. The following applies: read-out: IC50 on DYRK4 (most potent DYRK4 inhibitors). In kind it is biochemical. As for the experimental part: Assays were performed by ProQinase GmbH (Engesserstr. 4, D-79108 Freiburg, Germany. www.proqinase.com). The IC50 profile of all compounds was determined using 12 protein kinases (CDK2/cyclin E, CK1ε, CLK1, 2, 3, 4, DYRK1A, 1B, 2, 3, 4, GSK3β).
The compounds were provided as […] in 100% DMSO. Prior to testing, the 1 μM stock solutions were subjected to a serial, semi-logarithmic dilution using 100% DMSO as a solvent. […] In the process, 90 μl H2O were added to each well of each compound dilution plate. To minimize potential precipitation, the H2O was added to each plate only a few minutes before the transfer of the compound solutions into the assay plates. The plate was shaken thoroughly, resulting in a compound dilution plate/10% DMSO.
For the assays (see below), 5 μL solution from each well of the compound dilution plates/10% DMSO were transferred into the assay plates. The final volume of the assay was 50 μL. All compounds were tested at 10 final assay concentrations in the range from 10 μM to 30 nM. The final DMSO concentration in the reaction cocktails was 1% in all cases. […]
The reaction cocktails were incubated at 30° C. for 60 minutes. […] Incorporation of ^33Pi was determined with a microplate scintillation counter (Microbeta, Wallac). The IC50 values for all compounds were calculated from the dose response curves […]

Molecules are shown by their SMILES.

As to `O=C1NC(NC23CC4CC(CC(O)(C4)C2)C3)=N/C1=C\c1ccc2ncccc2c1` [Compound 50, (4Z)-2-[(3-hydroxy-1-adamantyl)amino]-4-(6-quinolylmethylene)-1H-imidazol-5-one], the figures for the IC50 at DYRK3 and on DYRK4 were at most 250 nM and at most 300 nM, respectively.

The values above are taken from patent publication US20250340538A1, “IMIDAZOLONE DERIVATIVES AS INHIBITORS OF PROTEIN KINASES IN PARTICULAR DYRK1A, CLK1 AND/OR CLK4” (PERHA PHARMACEUTICALS, priority 2021, published 2025).
